In this assay the target is T1, human m4 receptors (Homo sapiens, UniProt P08173).
T1 construct: expressed in transfected cells; host or cells: CHO K1
T1 sequence (P08173 whole entry): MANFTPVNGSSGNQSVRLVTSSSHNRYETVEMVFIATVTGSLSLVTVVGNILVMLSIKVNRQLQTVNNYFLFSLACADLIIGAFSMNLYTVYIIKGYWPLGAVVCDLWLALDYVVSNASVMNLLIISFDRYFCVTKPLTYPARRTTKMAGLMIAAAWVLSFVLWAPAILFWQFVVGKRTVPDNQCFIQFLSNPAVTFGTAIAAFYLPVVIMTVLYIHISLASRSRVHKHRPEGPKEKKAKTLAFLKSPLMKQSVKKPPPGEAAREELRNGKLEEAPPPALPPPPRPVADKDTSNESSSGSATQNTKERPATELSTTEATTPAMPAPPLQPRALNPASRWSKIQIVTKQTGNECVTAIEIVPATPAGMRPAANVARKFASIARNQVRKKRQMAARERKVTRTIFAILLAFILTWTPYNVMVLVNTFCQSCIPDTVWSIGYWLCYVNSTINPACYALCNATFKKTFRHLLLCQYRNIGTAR
The assay is described as follows: M4 assay: cyclic AMP accumulation/production in pertussis toxin-treated CHO m4 cells (% maximum stimulation compared to oxotremorine-M). The format is cell-based. The note with it: read-out: % Maximum Stimulation Compared to Oxotremorine-M. As to the method:
II. M4 muscarinic receptor […] assay:
Cyclic AMP Accumulation in Pertussis Toxin-Treated CHO m4 Cells.
CHO K1 cells transfected with human m4 receptors were grown to near confluency in T-150 flasks using Dulbecco's Modified Eagle Medium (DMEM) containing 10% fetal bovine serum. Cells were detached with 0.05% trypsin, 0.53 mM EDTA, and were suspended in medium containing 100 ng/ml pertussis toxin. Cells were plated at 30,000 cells per well into 96 well plates. Eighteen to twenty hours later the medium was removed and the cells were washed with serum-free medium. Attached cells were incubated at 37_C for one hour after addition of […] of serum free DMEM containing 1 mM 3-isobutyl-1-methylxanthine and 1 mM forskolin plus or minus drugs being tested. Incubations were terminated with […] per well of serum free DMEM containing 0.3%, triton-X-100. After stopping incubations the plates were allowed to sit for 20 minutes to extract cAMP and samples were then diluted 2.5-fold and were assayed using the scintillation proximity assay of Amersham (Arlington Heights, Ill.).
Representative results from the M4 assay are as follows:
Stimulation of cyclic AMP Production in CHO-m4 cells.
On to `O=C(N[C@H]1c2cc(N=CN3CCCC3)ccc2C[C@@H]1O)C1CCCCC1` (relative stereo) [Compound 11], for which the Emax is 34%.
The result for `O=C(N[C@H]1c2cc(N=CN3CCCC3)ccc2C[C@@H]1O)c1cccnc1Cl` (relative stereo) [Compound 12] reads 26%; that for `N#Cc1ccc(C(=O)N[C@H]2c3cc(N=CN4CCCC4)ccc3C[C@@H]2O)cc1` (relative stereo) [Compound 13], less than 20%.
Take `O=C(N[C@H]1c2cc(N=CN3CCCC3)ccc2C[C@@H]1O)c1cc(Cl)cc(Cl)c1` (relative stereo) [Compound 14]: the Emax was 100%.
`O=C(N[C@H]1c2cc(N=CN3CCCC3)ccc2C[C@@H]1O)c1cccc2ccccc12` (relative stereo) [Compound 15]: the Emax turned out to be 76%.
To `O=C(N[C@H]1c2cc(N=CN3CCCC3)ccc2C[C@@H]1O)c1ccc2ccccc2c1` (relative stereo) [Compound 17] belongs 56%; to `O=C(N[C@H]1c2cc(N=CN3CCCC3)ccc2C[C@@H]1O)c1ccc(C(F)(F)F)cc1` (relative stereo) [Compound 18], 61%.
Turning to `O=C(N[C@H]1c2cc(N=CN3CCCC3)ccc2C[C@@H]1O)C(F)(F)F` (relative stereo) [Compound 19], the Emax was less than 20%.
For the molecule `O=C(N[C@H]1c2cc(N=CN3CCCC3)ccc2C[C@@H]1O)c1ccc([N+](=O)[O-])cc1Cl` (relative stereo) [Compound 20], the Emax came out at 69%.
The result for `O=C(N[C@H]1c2cc(N=CN3CCCC3)ccc2C[C@@H]1O)c1cccs1` (relative stereo) [Compound 21] reads 23%; that for `O=C(N[C@H]1c2cc(N=CN3CCCC3)ccc2C[C@@H]1O)c1cc(F)cc(F)c1` (relative stereo) [Compound 23], less than 20%; that for `O=C(N[C@H]1c2cc(N=CN3CCCC3)ccc2C[C@@H]1O)c1cccc(F)c1F` (relative stereo) [Compound 24], 22%.
Regarding `O=C(N[C@H]1c2cc(N=CN3CCCC3)ccc2C[C@@H]1O)c1cccc([N+](=O)[O-])c1` (relative stereo) [Compound 25], the Emax is 43%.
The result for `CCCc1ccc(C(=O)N[C@H]2c3cc(N=CN4CCCC4)ccc3C[C@@H]2O)cc1` (relative stereo) [Compound 26] reads less than 20%; that for `Cc1cc(C)c(C(=O)N[C@H]2c3cc(N=CN4CCCC4)ccc3C[C@@H]2O)c(C)c1` (relative stereo) [Compound 27], less than 20%; that for `O=C(CSc1ccccc1)N[C@H]1c2cc(N=CN3CCCC3)ccc2C[C@@H]1O` (relative stereo) [Compound 28], less than 20%.
The result for `O=C(N[C@H]1c2cc(N=CN3CCCC3)ccc2C[C@@H]1O)c1c(F)ccc(F)c1F` (relative stereo) [Compound 29] reads less than 20%; that for `O=C(N[C@H]1c2cc(N=CN3CCCC3)ccc2C[C@@H]1O)c1cccc(F)c1` (relative stereo) [Compound 30], less than 20%.
With `O=C(N[C@H]1c2cc(N=CN3CCCC3)ccc2C[C@@H]1O)c1cccc(Cl)c1Cl` (relative stereo) [Compound 31], the Emax stood at 45%.
Turning to `O=C(N[C@H]1c2cc(N=CN3CCCC3)ccc2C[C@@H]1O)c1cc(F)ccc1F` (relative stereo) [Compound 32], the Emax was less than 20%.
The result for `O=C(N[C@H]1c2cc(N=CN3CCCC3)ccc2C[C@@H]1O)c1ccc(F)c(F)c1F` (relative stereo) [Compound 33] reads 45%; that for `COc1cccc(C(=O)N[C@H]2c3cc(N=CN4CCCC4)ccc3C[C@@H]2O)c1` (relative stereo) [Compound 34], 45%.
Turning to `O=C(N[C@H]1c2cc(N=CN3CCCC3)ccc2C[C@@H]1O)c1ccccc1C(F)(F)F` (relative stereo) [Compound 35], the Emax stood at 65%.
As for `COc1cc(OC)cc(C(=O)N[C@H]2c3cc(N=CN4CCCC4)ccc3C[C@@H]2O)c1` (relative stereo) [Compound 36], the Emax was less than 20%.
Consider `Cc1cccc(C(=O)N[C@H]2c3cc(N=CN4CCCC4)ccc3C[C@@H]2O)c1` (relative stereo) [Compound 37], for which the Emax turned out to be 76%.
On to `N#Cc1cccc(C(=O)N[C@H]2c3cc(N=CN4CCCC4)ccc3C[C@@H]2O)c1` (relative stereo) [Compound 38], for which the Emax was less than 20%.
With `O=C(N[C@H]1c2cc(N=CN3CCCC3)ccc2C[C@@H]1O)c1cc(F)c(F)c(F)c1` (relative stereo) [Compound 39], the Emax was 43%.
As for `O=C(N[C@@H]1c2cc(N=CN3CCCC3)ccc2C[C@H]1O)c1cc(F)c(F)c(F)c1F` (relative stereo) [Compound 40], the Emax amounted to 96%.
With `O=C(N[C@@H]1c2cc(N=CN3CCCC3)ccc2C[C@H]1O)C1CCC1` (relative stereo) [Compound 41], the Emax is less than 20%.
For `O=C(N[C@@H]1c2cc(N=CN3CCCC3)ccc2C[C@H]1O)c1ccccc1Cl` (relative stereo) [Compound 44], the Emax is 41%.
The result for `CCCCc1ccc(C(=O)N[C@@H]2c3cc(N=CN4CCCC4)ccc3C[C@H]2O)cc1` (relative stereo) [Compound 45] reads less than 20%; that for `O=C(N[C@@H]1c2cc(N=CN3CCCC3)ccc2C[C@H]1O)c1c(Cl)cccc1Cl` (relative stereo) [Compound 46], 154%; that for `O=C(N[C@@H]1c2cc(N=CN3CCCC3)ccc2C[C@H]1O)c1c(Cl)cc(Cl)cc1Cl` (relative stereo) [Compound 47], less than 20%.
The result for `CN(C)C=Nc1ccc2c(c1)[C@@H](NC(=O)c1ccccc1)[C@H](O)C2` (relative stereo) [Compound 57] reads 5%.
For `CN(C)C=Nc1ccc2c(c1)[C@@H](NC(=O)c1cc(Cl)cc(Cl)c1)[C@H](O)C2` (relative stereo) [Compound 58], the Emax was determined as 74%.
On to `CCCCOc1ccc(C(=O)N[C@@H]2c3cc(N=CN(C)C)ccc3C[C@H]2O)cc1` (relative stereo) [Compound 59], for which the Emax amounted to 22%.
Regarding `CN(C)C=Nc1ccc2c(c1)[C@@H](NC(=O)c1cccc(C#N)c1)[C@H](O)C2` (relative stereo) [Compound 61], the Emax was 39%.
The result for `CN(C)C=Nc1ccc2c(c1)[C@@H](NC(=O)C1CCCC1)[C@H](O)C2` (relative stereo) [Compound 62] reads 27%; that for `CN(C)C=Nc1ccc2c(c1)[C@@H](NC(=O)c1ccc3ccccc3c1)[C@H](O)C2` (relative stereo) [Compound 63], 13%; that for `CN(C)C=Nc1ccc2c(c1)[C@@H](NC(=O)c1cc(F)cc(C(F)(F)F)c1)[C@H](O)C2` (relative stereo) [Compound 64], 52%.
Take `CN(C)C=Nc1ccc2c(c1)[C@@H](NC(=O)c1cc(F)c(F)c(F)c1)[C@H](O)C2` (relative stereo) [Compound 65]: the Emax was determined as 30%.
To `CN(C)C=Nc1ccc2c(c1)[C@@H](NC(=O)C(F)(F)F)[C@H](O)C2` (relative stereo) [Compound 66] belongs 0%; to `CCc1ccc(C(=O)N[C@@H]2c3cc(N=CN(C)C)ccc3C[C@H]2O)cc1` (relative stereo) [Compound 67], 7%.
Turning to `CN(C)C=Nc1ccc2c(c1)[C@@H](NC(=O)c1sccc1Cl)[C@H](O)C2` (relative stereo) [Compound 68], the Emax stood at 0%.
Take `CN(C)C=Nc1ccc2c(c1)[C@@H](NC(=O)c1cc3ccccc3s1)[C@H](O)C2` (relative stereo) [Compound 69]: the Emax is 14%.
On to `CCCCc1ccc(C(=O)N[C@@H]2c3cc(N=CN(C)C)ccc3C[C@H]2O)cc1` (relative stereo) [Compound 70], for which the Emax was determined as 18%.
On to `CN(C)C=Nc1ccc2c(c1)[C@@H](NC(=O)c1cccc3ccccc13)[C@H](O)C2` (relative stereo) [Compound 71], for which the Emax turned out to be 95%.
Consider `CN(C)C=Nc1ccc2c(c1)[C@@H](NC(=O)c1cccnc1Cl)[C@H](O)C2` (relative stereo) [Compound 73], for which the Emax was found to be 11%.
With `CN(C)C=Nc1ccc2c(c1)[C@@H](NC(=O)c1ccc(Cl)nc1)[C@H](O)C2` (relative stereo) [Compound 74], the Emax was found to be 8%.
Turning to `CN(C)C=Nc1ccc2c(c1)[C@@H](NC(=O)c1ccc(C(F)(F)F)cc1)[C@H](O)C2` (relative stereo) [Compound 75], the Emax was 6%.
The result for `CC(=Nc1ccc2c(c1)[C@@H](NC(=O)c1ccc(Cl)c(Cl)c1)[C@H](O)C2)N(C)C` (relative stereo) [Compound 76] reads 130%; that for `O=C(N[C@@H]1c2cc(N=CN3CCCCC3)ccc2C[C@H]1O)c1ccc(Cl)c(Cl)c1` (relative stereo) [Compound 77], 214%; that for `O=C(N[C@@H]1c2cc(N=CN3CCCCC3)ccc2C[C@H]1O)c1cccc(Cl)c1Cl` (relative stereo) [Compound 88], 52%.
For the molecule `O=C(N[C@@H]1c2cc(N=CN3CCCCC3)ccc2C[C@H]1O)c1cc(Cl)cc(Cl)c1` (relative stereo) [Compound 97], the Emax was 36%.
As for `O=C(N[C@@H]1c2cc(N=CN3CCCCC3)ccc2C[C@H]1O)c1cc(F)cc(F)c1` (relative stereo) [Compound 98], the Emax is 73%.
Consider `CN(C)C=Nc1ccc2c(c1)C(NS(=O)(=O)c1ccc(Cl)c(Cl)c1)C(O)C2` (centres unmarked) [Compound 72], for which the Emax came to 4%.

Source of the values: patent publication US6211364A, “Process for preparing indane-like compounds” (Eli Lilly and Company, priority 1999, dated 2001).
